{"source": "patent US20100204149A1", "about": "“USE OF OCTREOTIDE AS A THERAPEUTIC AGENT” (priority 2007, published 2010)", "key": {"[1]": {"tested_on": "Streptococcus pneumoniae", "assay": "Streptococcus pneumoniae assay", "assay_type": "cell-based", "conditions": "peptide 10 micrograms per ml, read visually", "protocol": "(§1) The antibacterial assay was conducted using clear, U-bottom 96-well microtiter plates. Cation-adjusted Mueller-Hinton Broth (MHB) was used for testing Streptococcus pneumoniae. The peptide of the invention (0.1 ml of each—10 micrograms per ml—) was dispensed into wells in duplicate. Then the wells were inoculated with 5×10^5 CFU/mL Streptococcus pneumoniae in 0.1 ml volume. For control purposes, each plate included 4 wells containing media without bacterial inoculum and 4 wells containing medium with inoculum but without peptide. The plates were incubated for 12 h at 37° C., and read visually 18-24 hours post-incubation. Growth control of Streptococcus pneumoniae was examined first to determine adequacy of media preparations and growth conditions. Acceptable growth is defined as ≧2 mm wide button of cells at the bottom of each sample well, or obvious turbidity in the culture supernatant. Test wells were examined and scored as positive/negative for activity. A positive score for activity is based on complete inhibition of macroscopic growth of the test Streptococcus pneumoniae."}, "[2]": {"tested_on": "Human Peripheral Blood Mononuclear Cells (PBMC)", "conditions": "B cell proliferation; peptide 10 micrograms per ml; 3 days", "quoted_text": "Human Peripheral Blood Mononuclear Cells (PBMC) were obtained from normal human donors. The B cell proliferation was induced by stimulation of the cells with the B cell mitogen Staphylococcus aureus Cowans I (SAC) plus Interleukin-2, either in the absence (positive proliferation control), or in the presence of test peptide—10 micrograms per ml—to examine their effects on the B cell response. 10^5/well PBMC were plated in 96-well microtiter plates and assayed in duplicate with the peptide. Cell cultures were incubated at 37° C. for 3 days in a 5% CO2 incubator and were thereafter pulsed with 1 microCi/well ^3H-thymidine for additional 12 hours of culture. At the end of incubation time, the plates were harvested and the cells counted by liquid scintillation for the incorporation of ^3H-thymidine as a measure of B cell proliferation."}, "[3]": {"assay": "Cell viability (dye uptake) in HBV assay", "assay_type": "cell-based", "conditions": "human, HepG2-2.2.15, peptide 10 micrograms per ml"}, "[4]": {"tested_on": "MRSA", "assay": "Methicillin Resistant Staphylococcus Aureus (MRSA) assay", "assay_type": "cell-based", "conditions": "peptide 10 micrograms per ml, read visually", "protocol": "as §1, with “MRSA.” for “Streptococcus pneumoniae.”, “MRSA” for “Streptococcus pneumoniae”"}, "[5]": {"tested_on": "Primary Human endothelial cells (HUVEC)", "assay": "Endothelial cell migration assay", "assay_type": "cell-based", "conditions": "peptide 10 micrograms per ml, 22 hours", "protocol": "Endothelial cell migration is a prerequisite for the process of neo-vascularization or angiogenesis which is crucial for on-site recruitment of blood vessel formation. Primary Human endothelial cells (HUVEC) were seeded in insert chambers with 3 micrometer pore size of multi-transwell plate for 6 hours at 37° C. in Endothelial Cell Basal Medium (EBM) supplemented with 0.1% bovine serum albumin. Thereafter, designated concentration of test peptide—10 micrograms per ml—was added in duplicate wells. The endothelia were allowed to migrate for 22 hours at 37° C., then, migrated cells were fixed and stained with Hoechst 33342 dye. Images of 3 fields per insert were taken and the number of migrated cells per field were quantified using the ImageProPlus software. Data were analyzed for the average number of the migrated cells and standard deviation of six data points for each treatment condition. Active test peptide against HUVEC migration was determined based on 50% inhibition of migrated cells as compared with the control. Statistic p values were computed using the Student's t-test."}, "[6]": {"tested_on": "Human A549 cells", "assay": "Apoptosis induction assay (Annexin-5)", "assay_type": "cell-based", "conditions": "peptide 10 micrograms per ml, 24 hours", "from_the_text": "Human A549 cells (carcinomic human alveolar basal epithelial cells) were utilized in the experiments employing the Annexin-5 apoptosis assay. Annexin-5 is a member of a highly conserved protein family that binds acidic phospholipids in a calcium-dependent manner. […] Phosphatidylserine is translocated from the inner side of the plasma membrane to the outer layer when cells undergo death by apoptosis or cell necrosis and serves as a signal by which cell destined for death are recognized by phagocytes. Test peptide—10 micrograms per ml—were exposed for 24 hours to the A549 cells before they were analyzed for signs of apoptosis."}, "[7]": {"assay": "Cytotoxicity testing in MRC-5 cells (CellTiter 96)", "assay_type": "cell-based", "conditions": "human, MRC-5 cells (embryonal lung fibroblasts); MRC-5 cells; 6 days incubation; read-out: % Cell viability", "protocol": "For cytotoxicity testing, MRC-5 cells were seeded at 2,500 cells/well in 96 well plates using growth medium. […] The following day, peptide was added and tested in duplicates. After a 6 days incubation period, cell viability was measured using CellTiter 96 Solution (Promega). Plates were incubated for additional 4 hours at 37° C."}, "[8]": {"tested_on": "hepatitis B virus (HBV) ayw strain", "assay": "HBV replication assay, secreted HBV DNA by TaqMan PCR", "assay_type": "cell-based", "conditions": "HepG2-2.2.15; peptide 10 micrograms per ml; six days; HBV DNA in supernatant"}, "[9]": {"tested_on": "Human Peripheral Blood Mononuclear Cells (PBMC)", "conditions": "T cell proliferation; peptide 10 micrograms per ml; 3 days", "quoted_text": "Human Peripheral Blood Mononuclear Cells (PBMC) were obtained from normal human donors. The T cell proliferation was induced by stimulation of the cells with the T cell mitogen phytohemagglutinin (PHA), either in the absence (positive proliferation control), or in the presence of test peptide—10 micrograms per ml—to examine their effects on the T cell proliferating response. 10^5/well PBMC were plated in 96-well microtiter plates and assayed in duplicate with the peptide. Cell cultures were incubated at 37° C. for 3 days in a 5% CO2 incubator and were thereafter pulsed with 1 microCi/well ^3H-thymidine for additional 12 hours of culture. At the end of incubation time, the plates were harvested and the cells counted by liquid scintillation for the incorporation of ^3H-thymidine as a measure of T cell proliferation."}, "[10]": {"tested_on": "Pseudomonas aeruginosa", "assay": "Pseudomonas aeruginosa assay", "assay_type": "cell-based", "conditions": "peptide 10 micrograms per ml, read visually", "protocol": "as §1, with “Pseudomonas aeruginosa.” for “Streptococcus pneumoniae.”, “Pseudomonas aeruginosa” for “Streptococcus pneumoniae”"}, "[11]": {"assay": "Cytotoxicity (MTS cell viability) in HIV-1 assay", "conditions": "human, CEM-SS cells"}, "[12]": {"tested_on": "Human A549 cells", "assay": "Apoptosis prevention assay (C2 ceramide, Annexin-5)", "assay_type": "cell-based", "conditions": "pretreated 30 min with peptide 10 micrograms per ml", "from_the_text": "Human A549 cells (carcinomic human alveolar basal epithelial cells) were utilized in the experiments employing the Annexin-5 apoptosis assay. Annexin-5 is a member of a highly conserved protein family that binds acidic phospholipids in a calcium-dependent manner. […] Phosphatidylserine is translocated from the inner side of the plasma membrane to the outer layer when cells undergo death by apoptosis or cell necrosis and serves as a signal by which cell destined for death are recognized by phagocytes. A549 cells were pretreated for 30 min with test peptide -10 micrograms per ml—followed by the exposure to C2 ceramide. Ceramide mediates cell apoptosis through the activation of the mitogen activating protein kinase (MAPK) and the stress activated kinase (JNK/SAPK). C2 ceramide is a synthetic, membrane soluble analog of ceramide."}}, "data": [{"smiles": "C[C@@H](O)[C@@H]1NC(=O)[C@H](CCCCN)NC(=O)[C@@H](Cc2c[nH]c3ccccc23)NC(=O)[C@H](Cc2ccccc2)NC(=O)[C@@H](NC(=O)[C@H](N)Cc2ccccc2)CSSC[C@@H](C(=O)N[C@H](CO)[C@@H](C)O)NC1=O", "note": "[Octreotide, H-D-Phe-Cys-Phe-D-Trp-Lys-Thr-Cys-L-threoninol]", "values": [{"measurement": "% inhibition", "setting": "[1]", "value": 100.0, "unit": "%"}, {"measurement": "% of SAC/IL2 induced control", "setting": "[2]", "value": 115.3, "unit": "%"}, {"measurement": "viability at 144 h, 10 micrograms per ml", "setting": "[3]", "value": 97.8, "unit": "%"}, {"measurement": "% inhibition", "setting": "[4]", "value": 0.0, "unit": "%"}, {"measurement": "% inhibition of migration", "setting": "[5]", "value": "−24", "unit": "%"}, {"measurement": "% of induction", "setting": "[6]", "value": 2.6, "unit": "%"}, {"measurement": "viability at 144 h", "setting": "[7]", "value": 100, "unit": "%"}, {"measurement": "% inhibition of HBV replication in HEP G2 cells", "setting": "[8]", "value": 13.4, "unit": "%"}, {"measurement": "% of PHA induced control", "setting": "[9]", "value": 100.0, "unit": "%"}, {"measurement": "% inhibition", "setting": "[10]", "value": 0.0, "unit": "%"}, {"measurement": "viability at 10 micrograms per ml", "setting": "[11]", "value": 100, "unit": "%"}, {"measurement": "% prevention of ceramide induced apoptosis", "setting": "[12]", "value": 0.0, "unit": "%"}]}]}
